Assay: UV absorption spectrum in ethanol (λmax, εmax)
Type: physicochemical
Set-up: UV εmax: unit not given beside the values
Settings: for UV εmax: at λmax

Compound | UV λmax (Ethanol) [nm] | UV εmax (Ethanol) | UV λmax (95% Ethanol) [nm] | UV εmax (95% Ethanol)
CC(C)COC(=O)C(=Cc1ccc(Nc2nc(NCCC[Si](C)(O[Si](C)(C)C)O[Si](C)(C)C)nc(Nc3ccc(C=C(C(=O)OCC(C)C)C(=O)OCC(C)C)cc3)n2)cc1)C(=O)OCC(C)C [Example 5, 2,4-bis(diisobutyl 4′-ylaminobenzalmalonate)-6-{[1,1,1,3-tetramethyl-1-[(trimethylsilyl)oxy]disiloxanyl]propyl-3-ylamino}-s-triazine] | 356.5 | 65,650 | – | –
CC12CCC(C(=Cc3ccc(Nc4nc(NCCC[Si](C)(O[Si](C)(C)C)O[Si](C)(C)C)nc(Nc5ccc(C=C6C(=O)C7(C)CCC6C7(C)C)cc5)n4)cc3)C1=O)C2(C)C [Example 2, 2,4-bis(4′-ylamnobenzylidenecamphor)-6-{[1,3,3,3-tetramethyl-1-[(trimethylsilyl)oxy]disiloxanyl]propyl-3-ylamino}-s-triazine] | 354 | 66,460 | – | –
CCCCOC(=O)c1ccc(Nc2nc(NCCC[Si](C)(O[Si](C)(C)C)O[Si](C)(C)C)nc(Nc3ccc(C(=O)OCCCC)cc3)n2)cc1 [Example 3, 2,4-bis(butyl 4′-ylaminobenzoate)-6-{[1,3,3,3-tetramethyl-1-[(trimethylsilyl)oxy]disiloxanyl]propyl-3-ylamino}-s-triazine] | – | – | 310 | 75,510
2-(butyl 4′-ylaminobenzoate)-4,6-bis{[1,3,3,3-tetramethyl-1-[(trimethylsilyl)oxy]disiloxanyl]propyl-3-ylamino}-s-triazine [Example 1] | 300 | 40,800 | – | –
Cc1cc(Nc2nc(NCCC[Si](C)(O[Si](C)(C)C)O[Si](C)(C)C)nc(NCCC[Si](C)(O[Si](C)(C)C)O[Si](C)(C)C)n2)c(O)c(-n2nc3ccccc3n2)c1 [Example 4, 2-(2-benzotriazol-2-yl-4-methyl-6-ylaminophenol)-4,6-bis{[1,3,3,3-tetramethyl-1-[(trimethylsilyl)oxy]disiloxanyl]propyl-3-ylamino}-s-triazine] | 324 | 22,000 | – | –

From patent US6517742B1, “Sunscreen agents, photoprotective cosmetic compositions containing them and uses thereof” (L'Oreal, priority 1996, dated 2003)
